Measurements reported in PMC9848300, “Discovery of novel enasidenib analogues targeting inhibition of mutant isocitrate dehydrogenase 2 as antileukaemic agents” (Journal of Enzyme Inhibition and Medicinal Chemistry, 2023).
Like-named read-outs stand apart in the source and are kept apart here.

Tests used:
Type in all cases: cell-based
[1] = test system: 60 human subpanel cancer cell lines; assay: NCI 60 antitumor screening, mean over the panel (single dose); conditions: mean over 60 cancer cell lines, single dose 10 μM
Method in brief: (§1)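 Read-out is percent growth (G%) of treated cancer cells relative to untreated, converted to percent inhibition as 100 − G%. Each compound was applied once at 10 μM across 60 human tumour lines under the NCI protocol.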

SK-MEL-28 = assay: NCI 60 antitumor screening (single dose / five doses); conditions: Homo sapiens
T-47D = assay: as above; conditions: Homo sapiens, T47D, read-out: Growth inhibition percentage (GI %)
M14 = assay: NCI 60 antitumor screening (single dose); conditions: Homo sapiens
Method in brief: (§2)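 Single-dose NCI protocol, 10 μM, triplicate. Readout G%; GI% = 100 − G%.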

NCI-H226 = assay: NCI 60 antitumor screening (single dose); conditions: Homo sapiens; NCI-H226 (non-small cell lung cancer), single dose 10 μM; read-out: Growth inhibition percentage (GI %)
Method in brief: as §2

SK-OV-3 = assay: NCI 60 antitumor screening (single dose); conditions: Homo sapiens
Method in brief: as §1

OVCAR-3 = assay: NCI 60 antitumor screening (single dose); conditions: Homo sapiens
Method in brief: as §2

OVCAR-5 = assay: NCI 60 antitumor screening (single dose); conditions: Homo sapiens
Method in brief: as §1

OVCAR-4 = assay: NCI 60 antitumor screening (single dose); conditions: Homo sapiens
Method in brief: as §2

NCI-H23 = assay: NCI 60 antitumor screening (single dose); conditions: Homo sapiens; NCI-H23 (non-small cell lung cancer), single dose 10 μM; read-out: Growth inhibition percentage (GI %)
Method in brief: as §1

NCI-H322M = assay: NCI 60 antitumor screening (single dose); conditions: Homo sapiens; NCI-H322M (non-small cell lung cancer), single dose 10 μM; read-out: Growth inhibition percentage (GI %)
Method in brief: as §2

KM 12 = assay: NCI 60 antitumor screening (single dose); conditions: Homo sapiens, KM12; KM 12 (colon cancer), single dose 10 μM; read-out: Growth inhibition percentage (GI %)
Method in brief: as §2

SNB-19 = assay: NCI 60 antitumor screening (single dose); conditions: Homo sapiens; SNB-19 (CNS cancer), single dose 10 μM; read-out: Growth inhibition percentage (GI %)
Method in brief: as §2

NCI-H522 = assay: NCI 60 antitumor screening (single dose); conditions: Homo sapiens; NCI-H522 (non-small cell lung cancer), single dose 10 μM; read-out: Growth inhibition percentage (GI %)
Method in brief: as §1

MCF7 = assay: NCI 60 antitumor screening (single dose); conditions: Homo sapiens
Method in brief: as §2

A549/ATCC = assay: NCI 60 antitumor screening (single dose); conditions: Homo sapiens; A549/ATCC (non-small cell lung cancer), single dose 10 μM; read-out: Growth inhibition percentage (GI %)
Method in brief: as §2

SF-268 = assay: NCI 60 antitumor screening (single dose); conditions: Homo sapiens; SF-268 (CNS cancer), single dose 10 μM; read-out: Growth inhibition percentage (GI %)
Method in brief: as §1

HS 578T = assay: NCI 60 antitumor screening (single dose); conditions: Homo sapiens, read-out: Growth inhibition percentage (GI %)
Method in brief: as §2

U251 = assay: NCI 60 antitumor screening (single dose); conditions: Homo sapiens, U-251; U251 (CNS cancer), single dose 10 μM; read-out: Growth inhibition percentage (GI %)
Method in brief: as §1

CAKI-1 = assay: NCI 60 antitumor screening (single dose); conditions: Homo sapiens
Method in brief: as §2

SR = assay: NCI 60 antitumor screening (single dose / five doses); conditions: Homo sapiens, read-out: Growth inhibition percentage (GI %)
MALME-3M = assay: as above; conditions: Homo sapiens, read-out: Growth inhibition percentage (GI %)
MDA-MB-435 = assay: as above; conditions: Homo sapiens
SF-539 = assay: as above; conditions: Homo sapiens
HCT-116 = assay: as above; conditions: Homo sapiens
DU-145 = assay: as above; conditions: Homo sapiens
SK-MEL-2 = assay: as above; conditions: Homo sapiens
[2] = SK-MEL-28 (melanoma), single dose 10 μM, read-out: Growth inhibition percentage (GI %)
[3] = T-47D (breast cancer), single dose 10 μM
[4] = M14 (melanoma), single dose 10 μM, read-out: Growth inhibition percentage (GI %)
[5] = SK-OV-3 (ovarian cancer), single dose 10 μM, read-out: Growth inhibition percentage (GI %)
[6] = OVCAR-3 (ovarian cancer), single dose 10 μM, read-out: Growth inhibition percentage (GI %)
[7] = OVCAR-5 (ovarian cancer), single dose 10 μM, read-out: Growth inhibition percentage (GI %)
[8] = OVCAR-4 (ovarian cancer), single dose 10 μM, read-out: Growth inhibition percentage (GI %)
[9] = MCF7 (breast cancer), single dose 10 μM, read-out: Growth inhibition percentage (GI %)
[10] = HS 578T (breast cancer), single dose 10 μM
[11] = CAKI-1 (renal cancer), single dose 10 μM, read-out: Growth inhibition percentage (GI %)
[12] = SR (leukaemia), single dose 10 μM
[13] = MALME-3M (melanoma), single dose 10 μM
[14] = MDA-MB-435 (melanoma), single dose 10 μM, read-out: Growth inhibition percentage (GI %)
[15] = SF-539 (CNS cancer), single dose 10 μM, read-out: Growth inhibition percentage (GI %)
[16] = HCT-116 (colon cancer), single dose 10 μM, read-out: Growth inhibition percentage (GI %)
[17] = DU-145 (prostate cancer), single dose 10 μM, read-out: Growth inhibition percentage (GI %)
[18] = SK-MEL-2 (melanoma), single dose 10 μM, read-out: Growth inhibition percentage (GI %)

| Compound | Mean GI % [1] | inhibition at 10 µM (NCI-H226) | inhibition at 10 µM (NCI-H23) | inhibition at 10 µM (NCI-H322M) | inhibition at 10 µM (KM 12) | inhibition at 10 µM (SNB-19) | inhibition at 10 µM (NCI-H522) | inhibition at 10 µM (A549/ATCC) | inhibition at 10 µM (SF-268) | inhibition at 10 µM (U251) | inhibition at 10 µM (SK-MEL-28; [2]) | inhibition at 10 µM (T-47D; [3]) | inhibition at 10 µM (M14; [4]) | inhibition at 10 µM (SK-OV-3; [5]) | inhibition at 10 µM (OVCAR-3; [6]) | inhibition at 10 µM (OVCAR-5; [7]) | inhibition at 10 µM (OVCAR-4; [8]) | inhibition at 10 µM (MCF7; [9]) | inhibition at 10 µM (HS 578T; [10]) | inhibition at 10 µM (CAKI-1; [11]) | other results |
| --- | --- | --- | --- | --- | --- | --- | --- | --- | --- | --- | --- | --- | --- | --- | --- | --- | --- | --- | --- | --- | --- |
| O=[N+]([O-])c1cc(/C=N/Nc2nc(N/N=C/c3ccc(Cl)c([N+](=O)[O-])c3)nc(N3CCOCC3)n2)ccc1Cl [compound 6i, 2,4-Bis[(E)-2-[(4-Chloro-3-nitrophenyl)methylidene]hydrazin-1-yl]-6-(morpholin-4-yl)-1,3,5-triazine] | 0.67% | -3.53% | 3.66% | 2.28% | 6.79% | 0.85% | 0.32% | -8.71% | 0.39% | -5.95% |  |  |  |  |  |  |  |  |  |  | inhibition at 10 µM (SK-MEL-28; SK-MEL-28, read-out: Growth inhibition percentage (GI %)): -4.35%; inhibition at 10 µM (T-47D): 0.85%; inhibition at 10 µM (M14; M14, read-out: Growth inhibition percentage (GI %)): -11.5%; inhibition at 10 µM (SK-OV-3; SK-OV-3, read-out: Growth inhibition percentage (GI %)): -22.5%; inhibition at 10 µM (OVCAR-3; OVCAR-3, read-out: Growth inhibition percentage (GI %)): -10%; inhibition at 10 µM (OVCAR-5; OVCAR-5, read-out: Growth inhibition percentage (GI %)): -9.28%; inhibition at 10 µM (OVCAR-4; OVCAR-4, read-out: Growth inhibition percentage (GI %)): -12.5%; inhibition at 10 µM (MCF7; MCF7, read-out: Growth inhibition percentage (GI %)): 56.7%; inhibition at 10 µM (HS 578T; Hs-578T): -5.27%; inhibition at 10 µM (CAKI-1; CAKI-1, read-out: Growth inhibition percentage (GI %)): -3.02%; inhibition at 10 µM (SR; SR): 18.5%; inhibition at 10 µM (MALME-3M; Malme-3M): -29.9%; inhibition at 10 µM (MDA-MB-435; MDA-MB-435, read-out: Growth inhibition percentage (GI %)): -7.52%; inhibition at 10 µM (SF-539; SF-539, read-out: Growth inhibition percentage (GI %)): 6.38%; inhibition at 10 µM (HCT-116; HCT-116, read-out: Growth inhibition percentage (GI %)): 7.64%; inhibition at 10 µM (DU-145; DU-145, read-out: Growth inhibition percentage (GI %)): -11.3%; inhibition at 10 µM (SK-MEL-2; SK-MEL-2, read-out: Growth inhibition percentage (GI %)): -2.6% |
| Oc1ccc(/C=N/Nc2nc(N/N=C/c3ccc(O)c(O)c3)nc(N3CCCCC3)n2)cc1O [compound 7j, 4-[(1e)-(2-{4-[(E)-2-[(3,4-Dihydroxyphenyl)methylidene]hydrazin-1-yl]-6-(piperidin-1-yl)-1,3,5-triazin-2-yl}hydrazin-1-ylidene)methyl]benzene-1,2-diol] | 1.89% | 4.47% | 0.5% | -2.3% | -0.29% | 13.7% | 6.61% | -0.07% | -2.56% | 9.07% | -7.04% | 16.9% | -3.18% | -24.8% | 5.01% | -13.1% | -0.74% | 4.27% | -6.08% | 13.4% | inhibition at 10 µM (SR; [12]): 25.9%; inhibition at 10 µM (MALME-3M; [13]): 6.88%; inhibition at 10 µM (MDA-MB-435; [14]): -1.68%; inhibition at 10 µM (SF-539; [15]): 1.16%; inhibition at 10 µM (HCT-116; [16]): 23.7%; inhibition at 10 µM (DU-145; [17]): 0.25%; inhibition at 10 µM (SK-MEL-2; [18]): 9.62% |
| CN(C)c1ccc(/C=N/Nc2nc(N/N=C/c3ccc(N(C)C)cc3)nc(N3CCOCC3)n2)cc1 [compound 6g, 4-[(1e)-(2-{4-[(E)-2-{[4-(dimethylamino)phenyl]methylidene}hydrazin-1-yl]-6-(morpholin-4-yl)-1,3,5-triazin-2-yl}hydrazin-1-ylidene)methyl]-N,N-dimethylaniline] | 14.28% | 6.53% | 0.65% | -0.33% | -3.9% | 8.7% | 1.08% | 25.1% | 2.19% | 55.7% | -5.75% | 5.31% | -2.62% | -9.91% | -9.22% | -10.4% | -3.79% | 45.1% | 2.43% | 4.03% | inhibition at 10 µM (SR; [12]): 113%; inhibition at 10 µM (MALME-3M; [13]): -14.2%; inhibition at 10 µM (MDA-MB-435; [14]): -4.43%; inhibition at 10 µM (SF-539; [15]): 3.33%; inhibition at 10 µM (HCT-116; [16]): 64.3%; inhibition at 10 µM (DU-145; [17]): 7.27%; inhibition at 10 µM (SK-MEL-2; [18]): 1.45% |
